# Measurements taken from patent US9957569B2, “Recurrent gene fusions in prostate cancer” (THE REGENTS OF THE UNIVERSITY OF MICHIGAN, priority 2005, dated 2018).
# Key:
# [1] = system: LNCaP prostate cancer cell line; test: Androgen stimulation time course of LNCaP cells, Q-PCR of FLJ35294, CANT1 and DDX5 transcripts; type: cell-based, human
# Experimental: Q-PCR was carried out according to standard protocols.
# Samples were normalized by the mRNA level of the housekeeping gene GAPDH. Androgen stimulation reactions were performed in triplicate, and all other reactions were performed in duplicate. RNA Ligase Mediated Rapid Amplification of cDNA Ends (RLM-RACE)
# [2] = system: VCaP and LNCaP prostate cancer cell lines; test: QPCR of PSA and ETV1 in VCaP and LNCaP cells treated with R1881; type: cell-based, human
# [3] = system: LNCaP prostate cancer cell line; test: Androgen stimulation of LNCaP cells, qPCR of endogenous 5′ fusion partner genes; type: cell-based, human; details: 1 nM R1881, 24 h
# Experimental: For androgen stimulation experiments, LNCaP cells were grown in charcoal-stripped serum containing media for 24 hours before treatment for 24 hours with 1% ethanol or 1 nM of methyltrienolone (R1881, NEN Life Science Products, Boston, Mass.) dissolved in ethanol.
# Quantitative PCR (QPCR) was performed using Power SYBR Green Mastermix (Applied Biosystems, Foster City, Calif.) on an Applied Biosystems 7300 Real Time PCR system as described (Tomlins et al., Cancer Res 66, 3396-400 (2006); Tomlins et al., Recurrent fusion of TMPRSS2 and ETS transcription factor genes in prostate cancer. Science 310, 644-8 (2005)). HMBS and GAPDH5, and PSA6 primers were as described. Androgen stimulation reactions were performed in quadruplicate, all other reactions were performed in duplicate.
# ERG [4] = test: In vitro androgen responsiveness: ERG expression by QPCR after R1881; type: cell-based, human; details: 1 nM R1881, 24 h; for increase in expression of ERG compared to untreated controls: QPCR ERG/GAPDH; for expression of ERG after R1881 treatment compared to untreated controls: QPCR
# Experimental: Quantitative PCR (QPCR) was performed using SYBR Green dye on an Applied Biosystems 7300 Real Time PCR system essentially as described (Chinnaiyan et al., Cancer Res 65, 3328 (2005); Rubin et al., Cancer Res 64, 3814 (2004)). Briefly, 1-5 μg of total RNA was reverse transcribed into cDNA using SuperScript III (Invitrogen) in the presence of random primers or random primers and oligo dT primers. All reactions were performed with SYBR Green Master Mix (Applied Biosystems) and 25 ng of both the forward and reverse primer using the manufacturer's recommended thermocycling conditions. All reactions were subjected to melt curve analysis and products from selected experiments were resolved by electrophoreses on 1.5% agarose gels. For each experiment, threshold levels were set during the exponential phase of the QPCR reaction using Sequence Detection Software version 1.2.2 (Applied Biosystems). The amount of each target gene relative to the housekeeping gene glyceraldehyde-3-phosphate dehydrogenase (GAPDH) for each sample was determined using the comparative threshold cycle (Ct) method (Applied Biosystems User Bulletin #2), with the cDNA sample serving as the calibrator for each experiment described in the figure legend. All oligonucleotide primers were synthesized by Integrated DNA Technologies. GAPDH primers were as described (Vandesompele et al., Genome Biol 3, RESEARCH0034 (2002)) and all other primers are listed (Table 4).
# RWPE, LNCaP, VCap DuCaP, PC3 and PC3 cells stably transfected with the human androgen receptor (PC3+AR) (3) were treated for 24 h with 1% ethanol control or 1 nM of the synthetic androgen R1881. Total RNA was isolated and subjected to reverse transcription and QPCR as described above with ERG exon 5-6_f and _r primers. The relative amount of ERG/GAPDH for each sample was calibrated to the RWPE control sample.
# androgen receptor (AR) = androgen receptor (AR) (Homo sapiens, UniProt P10275, T878A); details: LNCaP
# Experimental: LNCaP, an androgen sensitive prostate cancer cell line, was maintained in RPMI with 10% FBS. For androgen stimulation experiments, cells were placed for two days in phenol red-free RPMI, supplemented with 5% of charcoal-treated FCS before being treated with 1% ethanol or 10 nM R1881 for the following time points 0, 3, 12, 24, and 48 hours. Cells were treated for 16 hours with androgen and crosslinked for chromatin immunoprecipitation (ChIP) analysis.
# The input whole-cell extract DNA and the ChIP-enriched DNA were amplified by ligation-mediated PCR, and subjected to qPCR assessment of target promoters. ChIP enrichment was evaluated as a percentage of input DNA.
# ERG [5] = test: Androgen regulation of Erg expression in LNCap and VCaP cells; type: cell-based, human; details: VCaP (TMPRSS2-ERG+), varying amounts of R1881, 48 hrs
# Experimental: This Example describes the androgen regulation of Erg expression. LNCap (TMPRSS2-ERG-) and VCaP (TMPRSS2-ERG+) cell lines were used. The cells were contacted with varying amounts of R1881 for 48 hrs. Expression of Erg, PSA (+control) and beta-tubulin (−control) were assayed.
# Sequence of androgen receptor (AR) (P10275 whole entry T878A): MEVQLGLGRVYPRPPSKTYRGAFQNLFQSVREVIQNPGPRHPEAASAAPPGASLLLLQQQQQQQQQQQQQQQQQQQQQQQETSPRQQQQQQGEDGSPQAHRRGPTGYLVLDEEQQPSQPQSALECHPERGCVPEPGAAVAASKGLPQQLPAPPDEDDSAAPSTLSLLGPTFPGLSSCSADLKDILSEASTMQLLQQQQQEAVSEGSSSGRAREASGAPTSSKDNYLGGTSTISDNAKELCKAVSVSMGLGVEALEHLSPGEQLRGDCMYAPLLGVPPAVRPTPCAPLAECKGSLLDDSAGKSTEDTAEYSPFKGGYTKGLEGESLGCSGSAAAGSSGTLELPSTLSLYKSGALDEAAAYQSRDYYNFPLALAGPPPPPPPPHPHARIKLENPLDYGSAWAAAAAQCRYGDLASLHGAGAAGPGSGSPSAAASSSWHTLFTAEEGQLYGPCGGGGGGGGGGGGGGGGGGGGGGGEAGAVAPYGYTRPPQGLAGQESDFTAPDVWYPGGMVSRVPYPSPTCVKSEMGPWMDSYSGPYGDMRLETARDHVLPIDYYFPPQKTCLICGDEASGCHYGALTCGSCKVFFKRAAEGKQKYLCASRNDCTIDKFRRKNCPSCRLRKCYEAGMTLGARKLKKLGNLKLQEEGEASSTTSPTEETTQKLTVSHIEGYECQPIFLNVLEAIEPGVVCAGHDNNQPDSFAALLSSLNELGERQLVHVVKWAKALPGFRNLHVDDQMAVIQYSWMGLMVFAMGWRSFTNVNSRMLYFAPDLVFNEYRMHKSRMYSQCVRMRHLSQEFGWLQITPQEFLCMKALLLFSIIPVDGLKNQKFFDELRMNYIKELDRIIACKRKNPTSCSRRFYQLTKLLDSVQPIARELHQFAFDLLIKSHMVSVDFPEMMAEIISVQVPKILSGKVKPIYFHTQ
compound,measurement,setting,value
"C[C@]1(O)CC[C@H]2[C@@H]3CCC4=CC(=O)CCC4=C3C=C[C@@]21C [R1881, methyltrienolone]",expression of DDX5 on R1881 stimulation,"[1]; 10 nM R1881, Q-PCR",not affected
same,induction of expression of endogenous CANT1,"[1]; 10 nM R1881, at 24 hours, Q-PCR, P=0.0014",3.8 fold
same,induction of expression of endogenous FL35294,"[1]; 10 nM R1881, at 48 hours, Q-PCR, P=0.0006",11.6 fold
same,ETV1 expression by QPCR,"[2]; LNCaP cells, 1 nM R1881, 48 hours",induction
same,ETV1 expression,[2]; androgen-responsive VCaP cell line,does not induce
same,PSA expression by QPCR (normalized to GAPDH),"[2]; both VCaP and LNCaP cells, 1 nM R1881, 48 hours",induction
same,decrease in expression of C15ORF21,[3]; P=0.0012,1.9 fold
same,change in expression of HNRPA2B1 (not significantly changed),[3]; P=0.29,1.17 fold
same,increase in endogenous expression of HERV-K_22q11.23,[3]; P=2.4E-4,7.8 fold
same,increase in endogenous expression of SLC45A3,[3]; P=6.5E-4,21.6 fold
same,increase in endogenous expression of TMPRSS2,[3]; P=9.95E-7,14.8 fold
same,increase in expression of ERG compared to untreated controls,ERG [4]; DuCaP cells,2.57 fold
same,expression of ERG after R1881 treatment compared to untreated controls,ERG [4]; LnCaP cells,0.86 fold
same,expression of ERG after R1881 treatment compared to untreated controls,ERG [4]; PC3 cells expressing the androgen receptor,0.73 fold
same,expression of ERG after R1881 treatment compared to untreated controls,ERG [4]; PC3 cells,1.28 fold
same,expression of ERG after R1881 treatment compared to untreated controls,ERG [4]; RWPE cells,1.37 fold
same,increase in expression of ERG compared to untreated controls,ERG [4]; VCaP cells,5.02 fold
same,AR recruitment to the promoter region of DDX5 (ChIP),androgen receptor (AR); 16 hours after R1881,not recruited
same,AR occupancy of the promoter region of CANT1 (ChIP enrichment),"androgen receptor (AR); 16 hours after R1881, P=0.0014",40 fold
same,AR occupancy of the promoter region of FL35294 (ChIP enrichment),"androgen receptor (AR); 16 hours after R1881, P=0.005",9 fold
same,"ERG expression, androgen dependence",ERG [5],androgen dependent
